Test results reported in PubChem BioAssay (NCI).
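These data come from cells grown in 96-well plates and exposed to compound for 48 hours at five concentrations. GI50 = concentration required for 50% inhibition of growth. At the TGI there is no net growth.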

Legend:
Assay in all cases: inhibition of tumour cell growth, NCI panel, 48 h
BT-549 breast = tested on: BT-549 breast
HT29 colon = tested on: HT29 colon
UACC-62 melanoma = tested on: UACC-62 melanoma
NCI/ADR-RES ovarian = tested on: NCI/ADR-RES ovarian
SK-OV-3 ovarian = tested on: SK-OV-3 ovarian
SK-MEL-5 melanoma = tested on: SK-MEL-5 melanoma
ACHN renal = tested on: ACHN renal
NCI-H23 lung = tested on: NCI-H23 lung
PC-3 prostate = tested on: PC-3 prostate
OVCAR-8 ovarian = tested on: OVCAR-8 ovarian
MDA-MB-435 = tested on: MDA-MB-435
OVCAR-5 ovarian = tested on: OVCAR-5 ovarian
HCC-2998 colon = tested on: HCC-2998 colon
CAKI-1 renal = tested on: CAKI-1 renal
786-0 renal = tested on: 786-0 renal
MCF7 breast = tested on: MCF7 breast
SK-MEL-2 melanoma = tested on: SK-MEL-2 melanoma
MALME-3M melanoma = tested on: MALME-3M melanoma
TK-10 renal = tested on: TK-10 renal
HCT-116 colon = tested on: HCT-116 colon
HL-60(TB) leukemia = tested on: HL-60(TB) leukemia
SF-539 CNS = tested on: SF-539 CNS
OVCAR-3 ovarian = tested on: OVCAR-3 ovarian
K-562 leukemia = tested on: K-562 leukemia
SN12C renal = tested on: SN12C renal
HS 578T breast = tested on: HS 578T breast
U251 CNS = tested on: U251 CNS
KM12 colon = tested on: KM12 colon
COLO 205 colon = tested on: COLO 205 colon
DU-145 prostate = tested on: DU-145 prostate
UACC-257 melanoma = tested on: UACC-257 melanoma
UO-31 renal = tested on: UO-31 renal
SW-620 colon = tested on: SW-620 colon
IGROV1 ovarian = tested on: IGROV1 ovarian
OVCAR-4 ovarian = tested on: OVCAR-4 ovarian
NCI-H522 lung = tested on: NCI-H522 lung
HOP-62 NSCLC = tested on: HOP-62 NSCLC
MDA-MB-468 breast = tested on: MDA-MB-468 breast
SF-295 CNS = tested on: SF-295 CNS
SNB-75 CNS = tested on: SNB-75 CNS
RXF 393 renal = tested on: RXF 393 renal
A498 renal = tested on: A498 renal
SNB-19 CNS = tested on: SNB-19 CNS
SK-MEL-28 melanoma = tested on: SK-MEL-28 melanoma
EKVX NSCLC = tested on: EKVX NSCLC
M14 melanoma = tested on: M14 melanoma
RPMI-8226 leukemia = tested on: RPMI-8226 leukemia
SR leukemia = tested on: SR leukemia
HOP-92 NSCLC = tested on: HOP-92 NSCLC
SF-268 CNS = tested on: SF-268 CNS
T-47D breast = tested on: T-47D breast
CCRF-CEM leukemia = tested on: CCRF-CEM leukemia
MOLT-4 leukemia = tested on: MOLT-4 leukemia
NCI-H226 lung = tested on: NCI-H226 lung
A549 NSCLC = tested on: A549 NSCLC
HCT-15 colon = tested on: HCT-15 colon
MDA-MB-231 breast = tested on: MDA-MB-231 breast
LOX IMVI melanoma = tested on: LOX IMVI melanoma
NCI-H460 lung = tested on: NCI-H460 lung

CC1=C(c2cc(-c3ccc(Cl)cc3)c(C#N)c(N)n2)C(c2ccccc2)NC(=S)N1 (configuration not stated)
GI50 (BT-549 breast): 14.1 µM | TGI (BT-549 breast): 29.5 µM | GI50 (HT29 colon): 12.2 µM | TGI (HT29 colon): 27.6 µM | GI50 (UACC-62 melanoma): 13.1 µM | TGI (UACC-62 melanoma): 26.9 µM | GI50 (NCI/ADR-RES ovarian): 0.671 µM | TGI (NCI/ADR-RES ovarian): 26.2 µM | GI50 (SK-OV-3 ovarian): 23.7 µM | TGI (SK-OV-3 ovarian): 67.9 µM | GI50 (SK-MEL-5 melanoma): 6.62 µM | TGI (SK-MEL-5 melanoma): 20.1 µM | GI50 (ACHN renal): 15.5 µM | TGI (ACHN renal): 30.9 µM | GI50 (NCI-H23 lung): 13.6 µM | TGI (NCI-H23 lung): 29.6 µM | GI50 (PC-3 prostate): 11 µM | TGI (PC-3 prostate): 53.1 µM | GI50 (OVCAR-8 ovarian): 20 µM | TGI (OVCAR-8 ovarian): > 86.4 µM | GI50 (MDA-MB-435): 7.44 µM | TGI (MDA-MB-435): 30.3 µM | GI50 (OVCAR-5 ovarian): 17.8 µM | TGI (OVCAR-5 ovarian): 35.5 µM | GI50 (HCC-2998 colon): 13.4 µM | TGI (HCC-2998 colon): 26.4 µM | GI50 (CAKI-1 renal): 16.5 µM | TGI (CAKI-1 renal): 43.9 µM | GI50 (786-0 renal): 16.3 µM | TGI (786-0 renal): 35.4 µM | GI50 (MCF7 breast): 0.177 µM | TGI (MCF7 breast): 28.5 µM | GI50 (SK-MEL-2 melanoma): 17.5 µM | TGI (SK-MEL-2 melanoma): 34.2 µM | GI50 (MALME-3M melanoma): 14 µM | TGI (MALME-3M melanoma): 32.1 µM | GI50 (TK-10 renal): 23.1 µM | TGI (TK-10 renal): 61 µM | GI50 (HCT-116 colon): 0.147 µM | TGI (HCT-116 colon): 17.6 µM | GI50 (HL-60(TB) leukemia): 0.168 µM | GI50 (SF-539 CNS): 10.1 µM | TGI (SF-539 CNS): 23 µM | GI50 (OVCAR-3 ovarian): 13.8 µM | TGI (OVCAR-3 ovarian): 47.4 µM | GI50 (K-562 leukemia): 0.277 µM | TGI (K-562 leukemia): > 100 µM | GI50 (SN12C renal): 5.86 µM | TGI (SN12C renal): 21.6 µM | GI50 (HS 578T breast): 19.1 µM | TGI (HS 578T breast): > 96.2 µM | GI50 (U251 CNS): 12.5 µM | TGI (U251 CNS): 28.1 µM | GI50 (KM12 colon): 16.9 µM | TGI (KM12 colon): 35.5 µM | GI50 (COLO 205 colon): 17 µM | TGI (COLO 205 colon): 33.5 µM | GI50 (DU-145 prostate): 13.1 µM | TGI (DU-145 prostate): 29.3 µM | GI50 (UACC-257 melanoma): 16.1 µM | TGI (UACC-257 melanoma): 38.8 µM | GI50 (UO-31 renal): 13.3 µM | TGI (UO-31 renal): 26.3 µM | GI50 (SW-620 colon): 11 µM | TGI (SW-620 colon): 32.5 µM | GI50 (IGROV1 ovarian): 17.2 µM | TGI (IGROV1 ovarian): 36.4 µM | GI50 (OVCAR-4 ovarian): 28 µM | TGI (OVCAR-4 ovarian): > 100 µM | GI50 (NCI-H522 lung): 14.7 µM | TGI (NCI-H522 lung): 29.5 µM | GI50 (HOP-62 NSCLC): 16 µM | TGI (HOP-62 NSCLC): 37 µM | GI50 (MDA-MB-468 breast): 8.45 µM | TGI (MDA-MB-468 breast): 22.7 µM | GI50 (SF-295 CNS): 10.8 µM | TGI (SF-295 CNS): 24.4 µM | GI50 (SNB-75 CNS): 7.01 µM | TGI (SNB-75 CNS): 47 µM | GI50 (RXF 393 renal): 11.6 µM | TGI (RXF 393 renal): 24.3 µM | GI50 (A498 renal): > 44.5 µM | TGI (A498 renal): > 62.8 µM | GI50 (SNB-19 CNS): 16.7 µM | TGI (SNB-19 CNS): 53.8 µM | GI50 (SK-MEL-28 melanoma): 14.9 µM | TGI (SK-MEL-28 melanoma): 30 µM | GI50 (EKVX NSCLC): 16.4 µM | TGI (EKVX NSCLC): 42.6 µM | GI50 (M14 melanoma): 3.33 µM | TGI (M14 melanoma): 25.4 µM | GI50 (RPMI-8226 leukemia): 0.692 µM | TGI (RPMI-8226 leukemia): 34.1 µM | GI50 (SR leukemia): 0.0842 µM | TGI (SR leukemia): > 48.7 µM | GI50 (HOP-92 NSCLC): 19.1 µM | TGI (HOP-92 NSCLC): 62.7 µM | GI50 (SF-268 CNS): 17.6 µM | TGI (SF-268 CNS): 67.2 µM | GI50 (T-47D breast): 11.4 µM | TGI (T-47D breast): 47.5 µM | GI50 (CCRF-CEM leukemia): 0.303 µM | TGI (CCRF-CEM leukemia): 16.9 µM | GI50 (MOLT-4 leukemia): 1.37 µM | TGI (MOLT-4 leukemia): > 66.2 µM | GI50 (NCI-H226 lung): 15.8 µM | TGI (NCI-H226 lung): 44.6 µM | GI50 (A549 NSCLC): 48.8 µM | TGI (A549 NSCLC): > 88 µM | GI50 (HCT-15 colon): 0.171 µM | TGI (HCT-15 colon): 18.2 µM | GI50 (MDA-MB-231 breast): 13.6 µM | TGI (MDA-MB-231 breast): 29.6 µM | GI50 (LOX IMVI melanoma): 1.34 µM | TGI (LOX IMVI melanoma): 14.4 µM | GI50 (NCI-H460 lung): 20.3 µM | TGI (NCI-H460 lung): 53.8 µM
